“Also recorded” adds a separate entry of the source.
What was measured:
PTPμ = PTPμ (Homo sapiens, UniProt P28827); test: In vitro phosphatase assay, GST-PTPμ_intra, malachite green; format: biochemical; design: A2: GST-PTPμ_intra, entire intracellular domain, aa 765-1449 (phosphatase)
Experimental: FIG. 8 illustrates a histogram showing the results of the phosphatase assays. […] The enzyme was pretreated on ice for 10 min, and the reactions started by addition of a peptide substrate and incubation at 30 °C. The amount of released phosphate was measured at 15 min using the malachite green reaction and normalized to that of the vehicle-treated control. Data is presented as percentages±s.e.m. of the indicated number of independent experiments. Differences were assessed using the Student's t-test with comparison to an untreated control sample (as all DMSO samples were set to 100% release). A difference was deemed significant at p<0.05.
A GST fusion protein containing the intracellular domain of PTPμ (B5: aa 765-1449) (PTPμ_intra) was prepared as described. Phosphatase reactions (50 μl total volume) were assembled on ice by mixing 0.4 μg GST-PTPμ_intra with phosphatase buffer (25 mM Hepes pH 7.4, 50 mM NaCl and 2 mM DTT) and compounds (100 μM) or DMSO (1%). […] Colorimetric product was allowed to develop for 15 min at room temperature, and the absorbance of the samples and a standard curve of free phosphate (assembled per the manufacturer's instructions) were read at 600 nm on a Synergy HT Microplate Reader (BioTek Instruments Inc., Winooski, Vermont). The amount of released phosphate was calculated, normalized to that released by the DMSO control sample, and expressed as a percent. […]

LN229 tumor xenograft = test: Human glioma flank tumor (LN229) growth assay in nude mice; format: in vivo, athymic nude mice; human LN229 cells
Experimental: FIGS. 9(A-C) illustrates a plot and images of the results of the human glioma tumor model in mice. LN229-flank tumors (n=6 per treatment group) established in nude mice were injected with vehicle or compound once a week for three weeks. A. Tumor sizes were measured once a week for four weeks and normalized to their starting sizes. Data is presented as average percent growth±s.e.m. Between-group comparisons were made using Student's t-test. Differences were considered significant at p<0.05. […] Representative images of H&E-stained sections from tumors (two per treatment group) harvested at 4-weeks are shown.
Glioma-cell tumor xenografts were prepared as previously described. Briefly, LN229 cells (2×10^6 per injection) mixed with Matrigel (Corning, Corning Inc., Corning, NY, USA) were subcutaneously injected into the flank of athymic nude (FoxN1^nu/Foxn1^nu) female mice bred by the Case Western Reserve University Athymic Animal Core Facility or obtained from The Jackson Laboratory (Bar Harbor, ME). Experiments were approved by our IACUC committee. Twelve days post tumor-cell-injection, 247678835 or DMSO was diluted into PBS to give final concentrations of 2 mM or 20%, respectively, and 25 μl was injected into the center of each flank tumor. Additional compound or DMSO injections were given 7 and 14 days after the first injection, and tumor volumes [(length×width^2)/2] were recorded once a week for 4 weeks. At four weeks, mice were sacrificed, and tumors were isolated, fixed in 10% buffered formalin, and prepared for paraffin sectioning. Five micron-thick sections were cut, stained with H&E, and images captured with a Hamamatsu Nanozoomer S60 Slide Scanner (Hama-matsu Photonics, K.K., Bridgewater, NJ, USA).
Human LN229 glioma cells were subcutaneously injected into the flanks of twelve athymic nude mice (n=6 per treatment group). Once tumors were established (12-days post cell injection), DMSO or 247678835 was injected into the center of each tumor once a week for three weeks, and tumor volumes were calculated from caliper measurements. […] Mice were sacrificed 4 weeks after the first treatment, and tumors were harvested, fixed, sectioned, and stained with H&E.

PTPμ, sequence (P28827 21-1452): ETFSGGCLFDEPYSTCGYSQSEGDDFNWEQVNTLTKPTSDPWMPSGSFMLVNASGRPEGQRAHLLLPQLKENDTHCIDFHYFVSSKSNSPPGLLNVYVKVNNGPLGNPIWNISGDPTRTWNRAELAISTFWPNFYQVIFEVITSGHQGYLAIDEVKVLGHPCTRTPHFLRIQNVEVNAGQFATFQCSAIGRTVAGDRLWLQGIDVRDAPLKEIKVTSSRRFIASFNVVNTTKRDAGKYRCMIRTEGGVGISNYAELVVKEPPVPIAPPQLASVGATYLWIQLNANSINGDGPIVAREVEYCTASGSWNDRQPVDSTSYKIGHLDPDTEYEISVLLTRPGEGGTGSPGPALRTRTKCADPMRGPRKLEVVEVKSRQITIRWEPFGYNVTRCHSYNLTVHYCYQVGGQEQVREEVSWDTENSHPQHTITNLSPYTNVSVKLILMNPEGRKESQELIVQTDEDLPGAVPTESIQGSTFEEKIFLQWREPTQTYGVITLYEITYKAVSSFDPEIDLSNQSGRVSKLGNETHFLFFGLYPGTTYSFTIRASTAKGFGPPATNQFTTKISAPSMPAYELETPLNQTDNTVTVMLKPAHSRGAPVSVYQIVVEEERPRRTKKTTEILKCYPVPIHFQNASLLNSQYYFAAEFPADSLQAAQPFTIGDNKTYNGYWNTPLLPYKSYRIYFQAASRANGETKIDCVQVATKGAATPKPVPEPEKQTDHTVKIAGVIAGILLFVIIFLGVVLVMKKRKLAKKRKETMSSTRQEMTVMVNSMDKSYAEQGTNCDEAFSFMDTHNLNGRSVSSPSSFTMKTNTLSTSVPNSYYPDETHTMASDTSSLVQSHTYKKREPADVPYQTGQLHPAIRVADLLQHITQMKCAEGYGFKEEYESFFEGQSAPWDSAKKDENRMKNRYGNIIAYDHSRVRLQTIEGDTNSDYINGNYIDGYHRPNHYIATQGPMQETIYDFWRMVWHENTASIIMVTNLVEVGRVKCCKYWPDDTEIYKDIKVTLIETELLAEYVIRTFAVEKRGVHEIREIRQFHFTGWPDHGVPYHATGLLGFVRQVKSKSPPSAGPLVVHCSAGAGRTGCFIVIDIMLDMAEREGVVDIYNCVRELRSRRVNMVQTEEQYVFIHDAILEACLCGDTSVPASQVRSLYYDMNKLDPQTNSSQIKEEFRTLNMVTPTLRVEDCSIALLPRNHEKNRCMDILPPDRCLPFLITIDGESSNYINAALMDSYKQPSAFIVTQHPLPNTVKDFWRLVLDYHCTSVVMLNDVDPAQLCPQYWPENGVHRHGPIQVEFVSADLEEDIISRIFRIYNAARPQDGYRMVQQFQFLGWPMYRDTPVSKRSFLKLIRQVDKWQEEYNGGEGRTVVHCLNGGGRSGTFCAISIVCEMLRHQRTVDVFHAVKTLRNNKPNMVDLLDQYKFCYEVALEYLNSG

Row | Structure (SMILES) | Effect on PTPμ phosphatase activity (released phosphate) (PTPμ; role: inhibitor, 100 μM, peptide substrate 60 μM, 30 °C, pH 7.4) | Tumor size relative to starting size (LN229 tumor xenograft; 3 weeks post first injection, intratumoral once a week, 2 mM, 25 μl) | Effect on tumor growth after treatment stopped (LN229 tumor xenograft; 4 weeks post first injection, in words) | Tumor histology (H&E) (LN229 tumor xenograft; tumors harvested at 4 weeks) | Effect on tumor growth (LN229 tumor xenograft; up to 3 weeks post first injection, intratumoral, in words) | Interference with malachite green dye (PTPμ; apparent reaction product in absence of enzyme/substrate)
1 | O=C(NCc1nc(-c2ccncc2)no1)c1ccc(Cl)c(S(=O)(=O)NCc2ccccc2)c1 [Compound 247678791] | modestly inhibit PTPμ's catalytic activity in vitro; also recorded: modest, but highly consistent reduction in released phosphate; also recorded: modestly inhibit the phosphatase activity of a PTPμ-intracellular construct; also recorded: modest, but statistically significant, reduction on enzymatic activity |  |  |  |  | 
2 | COc1cc(C)ccc1OCC(=O)Nc1nc(-c2c[nH]c(C(N)=O)c2)cs1 [Compound 247678835] |  | 1.3 × | appeared to rebound; also recorded: no longer statistically appreciable at 4 weeks post-injection | generally appeared less ‘cellular’ than DMSO-treated controls; also recorded: appeared smaller and less cellular | inhibit glioma-cell growth in a human glioma tumor model in mice; also recorded: inhibit flank tumor growth in vivo; also recorded: able to affect tumor growth in vivo; also recorded: slowed tumor growth, producing a statistically significant growth reduction by 3 weeks post-first injection | reacted with the malachite green dye, giving an apparent reaction product in the absence of enzyme/substrate; also recorded: interacted with the dye used to measure the release of free phosphate

Source: US20260355168A1, “COMPOSITIONS AND METHODS FOR TREATING AND DETECTING CANCER” (CASE WESTERN RESERVE UNIVERSITY, priority 2022, published 2026)
